Data published in patent US11166899B2, “Composition for external application containing a ceramide, a derivative thereof and an extract of Hibisci cortex” (AMOREPACIFIC CORPORATION, priority 2017, dated 2021).

Molecular target: T1, PPARα (Homo sapiens, UniProt Q07869)
T1 construct: expressed in transfected cells; host or cells: HaCaT (human keratinocyte cell line), transiently transfected
T1 sequence (Q07869 1-468): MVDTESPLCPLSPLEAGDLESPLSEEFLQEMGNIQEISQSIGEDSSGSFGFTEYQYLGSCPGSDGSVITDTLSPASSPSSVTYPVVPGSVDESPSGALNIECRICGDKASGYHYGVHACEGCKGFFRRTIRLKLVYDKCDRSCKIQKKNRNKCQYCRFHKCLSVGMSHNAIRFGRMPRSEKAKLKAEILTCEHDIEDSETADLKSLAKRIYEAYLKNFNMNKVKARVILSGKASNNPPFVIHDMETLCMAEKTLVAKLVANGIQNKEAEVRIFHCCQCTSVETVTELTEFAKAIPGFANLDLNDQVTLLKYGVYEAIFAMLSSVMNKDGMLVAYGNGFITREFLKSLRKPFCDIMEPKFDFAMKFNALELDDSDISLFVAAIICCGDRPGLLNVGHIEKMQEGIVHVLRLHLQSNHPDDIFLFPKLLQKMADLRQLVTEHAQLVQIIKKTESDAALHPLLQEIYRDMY
Assay: PPARα activation of single ceramide derivatives, PPRE-luciferase reporter in transfected HaCaT cells (Test Example 1)
Type: cell-based
Details: 10 ppm, 24 hours, HaCaT transfected with PPRE reporter and PPARα plasmids; DMSO control = 100
Text: HaCaT, which is a human keratinocyte cell line, was subcultured in DMEM medium containing 10% fetal bovine serum, which is a phenol red-free medium, in order to eliminate the effect caused by the phenol red's estrogen. The following plasmids were used: a plasmid having PPARα, PPARβ/δ and PPARγ genes downstream of a universal promoter which is expressed in general culture conditions; a plasmid having a PPARs response element (“PPRE”) as a promoter, which is activated by binding with ligand-bound PPARs, and a firefly luciferase gene serving as a reporter downstream of the promoter; and a reference plasmid having a β-galactosidase gene bound to a universal promoter.
HaCaT cells were seeded into a 24-well plate at a density of 5×10^4 cells/well, cultured for 24 hours, and then transiently transfected with the plasmid genes. After 24 hours of culture, the cells were washed with phosphate buffered saline (PBS), and then treated with the compounds prepared in Reference Examples 2-1 to 2-4, and Reference Examples 3-11 to 3-15 at a concentration of 10 ppm. As a positive control group, the cells were treated with a previously-known PPARs ligand (PPARα ligand Wy-14643) at a concentration of 10 μM. As a negative control group, a group treated with DMSO used to dissolve the samples was used. After 24 hours of culture, the cells were washed with PBS, harvested, and measured for luciferase activity.
Results obtained by transfecting the HaCaT cell line with the PPRE promoter reporter plasmid and the PPARα expression plasmid, followed by treating the transfected cells with drugs, and measuring the luciferase activity of the cells

Compound | Relative to Control Group (%) (luciferase activity)
CCCCCCCCCCCCCCCC(=O)N(CCO)CC(O)CN(CCO)C(=O)CCCCCCCCCCCCCCC [Reference Example 2-1, 1,3-bis(N-(2-hydroxyethyl)-palmitoylamino)-2-hydroxypropane] | 263%
CCCCCCCCCCCC(=O)N(CCO)CC(O)CN(CCO)C(=O)CCCCCCCCCCC [Reference Example 2-2, 1,3-Bis(N-(2-Hydroxyethyl)-Lauroylamino)-2-Hydroxypropane] | 270%
CCCCCCCC/C=C\CCCCCCCC(=O)N(CCO)CC(O)CN(CCO)C(=O)CCCCCCC/C=C\CCCCCCCC [Reference Example 2-3, 1,3-bis(N-(2-hydroxyethyl)-oleoylamino)-2-hydroxypropane] | 255%
CCCCCCCCCCCCCCCC(=O)N(CCO)CC(O)CNCCO (stereo not shown) [Reference Example 2-4, N,N′-bis(2-hydroxyethyl)-N-palmitoyl-N′-1,3-diamino-2-hydroxypropane] | 260%
CCCCCCCCCCCCCCCCN(CC(C)OP(=O)([O-])[O-])C(=O)CCCCCCCCCCCCCCC.[Na+].[Na+] (stereo not shown) [Reference Example 3-11, (N-hexadecyl-N-palmitoyl)-1-aminopropane-2-sodium phosphate] | 272%
CCCCCCCCCCCCCCCCN(CC(C)(C)OP(=O)([O-])[O-])C(=O)CCCCCCCCCCCCCCC.[Na+].[Na+] [Reference Example 3-12, (N-Hexadecyl-N-Palmitoyl)-1-Amino-2-Methylpropane-2-Sodium Phosphate] | 270%
CCCCCCCCCCCCCCCCN(CCOCCOP(=O)([O-])O)C(=O)CCCCCCCCCCCCCCC.[Na+] [Reference Example 3-13, (N-Hexadecyl-N-Palmitoyl)-1-Amino-2-Ethoxyethane-2-Sodium Phosphate] | 259%
CCCCCCCC/C=C\CCCCCCCCN(CC(C)OS(=O)(=O)[O-])C(=O)CCCCCCCCCCCCCCC.[Na+] (stereo not shown) [Reference Example 3-14, (N-oleyl-N-palmitoyl)-1-aminopropane-2-sodium sulfate] | 278%
CCCCCCCC/C=C\CCCCCCCCN(CC(C)(C)OS(=O)(=O)[O-])C(=O)CCCCCCCCCCCCCCC.[Na+] [Reference Example 3-15, (N-Oleyl-N-Palmitoyl)-1-Amino-2-Methylpropane-2-Sodium Sulfate] | 269%

Same assay, conditions: positive control, 10 μM, 24 hours, HaCaT; DMSO control = 100

Compound | Relative to Control Group (%) (luciferase activity)
Cc1cccc(Nc2cc(Cl)nc(SCC(=O)O)n2)c1C [Wy-14643, reference compound] | 291%
